Measurements: the NIST ThermoML archive (doi:10.1016/j.jct.2009.05.006)

Key:
[1] = excess molar enthalpy (molar enthalpy of mixing); xn = mol fraction of the nth substance listed; conditions: 298.15 K, 101 kPa, Liquid, Calvet calorimetry
[2] = xn = mol fraction of the nth substance listed; conditions: 298.15 K, 101 kPa, Liquid, Vibrating tube method

CCCCOC(=O)CCC [butyl butanoate] + BrCCCCBr
Conditions	excess molar enthalpy [kcal/mol]	mass density [kg/m3]
[1], x1 = 0.0526	0.00645	–
[1], x1 = 0.1195	0.0117	–
[1], x1 = 0.1947	0.0139	–
[1], x1 = 0.2716	0.0117	–
[1], x1 = 0.3471	0.0055	–
[1], x1 = 0.4134	-0.00263	–
[1], x1 = 0.471	-0.0117	–
[1], x1 = 0.5005	-0.0155	–
[1], x1 = 0.579	-0.0206	–
[1], x1 = 0.6761	-0.0222	–
[1], x1 = 0.7901	-0.0196	–
[1], x1 = 0.9017	-0.0122	–
[2], x1 = 0.0459	–	1757.74
[2], x1 = 0.1377	–	1643.47
[2], x1 = 0.1788	–	1594.83
[2], x1 = 0.2814	–	1479.86
[2], x1 = 0.3346	–	1423.4
[2], x1 = 0.3891	–	1367.86
[2], x1 = 0.5003	–	1260.78
[2], x1 = 0.5704	–	1197.33
[2], x1 = 0.6285	–	1146.9
[2], x1 = 0.7046	–	1083.68
[2], x1 = 0.7684	–	1032.96
[2], x1 = 0.8513	–	970.06
[2], x1 = 0.9156	–	923.4

CCCCOC(=O)CCC [butyl butanoate] + BrCCCCCBr
Conditions	excess molar enthalpy [kcal/mol]	mass density [kg/m3]
[1], x1 = 0.0642	0.00645	–
[1], x1 = 0.1447	0.0108	–
[1], x1 = 0.2305	0.012	–
[1], x1 = 0.3193	0.00956	–
[1], x1 = 0.3711	0.00621	–
[1], x1 = 0.3957	0.0043	–
[1], x1 = 0.4159	0.000956	–
[1], x1 = 0.4621	-0.00359	–
[1], x1 = 0.4668	-0.00478	–
[1], x1 = 0.5278	-0.00932	–
[1], x1 = 0.6041	-0.0115	–
[1], x1 = 0.6965	-0.0129	–
[1], x1 = 0.806	-0.0115	–
[1], x1 = 0.9138	-0.00693	–
[2], x1 = 0.0517	–	1642.59
[2], x1 = 0.1033	–	1591.9
[2], x1 = 0.1521	–	1545.03
[2], x1 = 0.2029	–	1497.33
[2], x1 = 0.2545	–	1449.85
[2], x1 = 0.3101	–	1399.96
[2], x1 = 0.3663	–	1350.58
[2], x1 = 0.4214	–	1303.32
[2], x1 = 0.478	–	1255.87
[2], x1 = 0.6053	–	1153.05
[2], x1 = 0.6591	–	1111.13
[2], x1 = 0.7254	–	1060.71
[2], x1 = 0.7885	–	1013.92
[2], x1 = 0.8577	–	963.85
[2], x1 = 0.9262	–	915.51

CCCCOC(=O)CCC [butyl butanoate] + BrCCCCCCBr
Conditions	excess molar enthalpy [kcal/mol]	mass density [kg/m3]
[1], x1 = 0.0751	0.00502	–
[1], x1 = 0.1669	0.00693	–
[1], x1 = 0.2609	0.00669	–
[1], x1 = 0.3471	0.00454	–
[1], x1 = 0.418	0.000478	–
[1], x1 = 0.4834	-0.00406	–
[1], x1 = 0.5223	-0.00789	–
[1], x1 = 0.5361	-0.0086	–
[1], x1 = 0.5892	-0.0105	–
[1], x1 = 0.6544	-0.0115	–
[1], x1 = 0.7475	-0.0115	–
[1], x1 = 0.8287	-0.00956	–
[1], x1 = 0.9253	-0.00502	–
[2], x1 = 0.0615	–	1551.3
[2], x1 = 0.114	–	1509.95
[2], x1 = 0.1733	–	1463.7
[2], x1 = 0.2207	–	1427.05
[2], x1 = 0.2782	–	1383.1
[2], x1 = 0.3299	–	1343.86
[2], x1 = 0.3955	–	1294.64
[2], x1 = 0.4505	–	1253.75
[2], x1 = 0.5089	–	1210.69
[2], x1 = 0.5674	–	1168
[2], x1 = 0.6293	–	1123.3
[2], x1 = 0.68	–	1087.08
[2], x1 = 0.7477	–	1039.01
[2], x1 = 0.8082	–	996.64
[2], x1 = 0.8735	–	951.23
[2], x1 = 0.9358	–	908.5
